Here are results for one compound from patent publication US20120040941A1, “5-(2--1-HYDROXYETHYL)-8-HYDROXYQUINOLIN-2(1H)-ONE AND ITS USE IN THE TREATMENT OF PULMONARY DISEASES” (priority 2009, published 2012).

Type in all cases: in vivo, human
Data set [1] concerns asthma patients. Put plainly: Clinical Phase II study: lung function (spirometry, body plethysmography) after single inhaled doses. The text has this: (§1) Clinical Phase II study: A randomised double-blind, double-dummy, placebo and active comparator-controlled, cross-over trial assesses the activity, safety, tolerability and pharmacokinetics of single doses of 5-(2-{[6-(2,2-difluoro-2-phenylethoxy)hexyl]amino}-1-(R)-hydroxyethyl)-8-hydroxyquinolin-2(1H)-one heminapadisylate by inhalation in asthma patients.
(§2) Methods: Men with a diagnosis of mild to moderate persistent asthma, as defined by the 2006 GINA guideline, for at least 6 months prior to screening and with a FEV 1 61-85% of the predicted normal values (according to Quanjer et al. 1993) were randomised to treatment sequences comprising a single-dose administration of 5-(2-{[6-(2,2-difluoro-2-phenylethoxy)hexyl]amino}-1-(R)-hydroxyethyl)-8-hydroxyquinolin-2(1H)-one heminapadisylate (at metered nominal doses of 5, 10 and 25 micrograms in the Cyclohaler® device), two administrations (at time points 0 and 12 hours) of Salmeterol (at a metered nominal dose of 50 micrograms in the Cyclohaler® device) and placebo administered all of them by means of a dry powder inhaler. Lung function measurements included (by spirometry) FEV1, PEF, FVC, FEF25-75, and (by body plethysmography) sGaw and Raw.

For data set [2], the system named is asthma patients. Kind of data set: Clinical Phase II study: safety and tolerability, adrenergic adverse events.
Description: as §1, §2

Data set [3] is described as follows: Clinical Phase II study: pharmacokinetics, plasma level after inhalation. The settings on record: subjects receiving the dose of 5 micrograms by inhalation.
Description: as §1, §2

[4] abbreviates: single dose 5 micrograms, patients with asthma.

With `O=c1ccc2c([C@@H](O)CNCCCCCCOCC(F)(F)c3ccccc3)ccc(O)c2[nH]1` [5-(2-{[6-(2,2-difluoro-2-phenylethoxy)hexyl]amino}-1-(R)-hydroxyethyl)-8-hydroxyquinolin-2(1H)-one], the “differences in dose effect between the different doses” value in the data set on asthma patients [1] (5, 10 and 25 micrograms) is on record as “no evidence of differences in dose effect”. The “bronchodilatory action, time after dosing” value with asthma patients [1] (all doses (5, 10 and 25 micrograms), single inhalation) is reported as “up to 36 hours”. Besides, the bronchodilation result in the data set with asthma patients [1] (setting [4]) is given as “supramaximal long-lasting bronchodilation”. The “increase in average trough FEV1 compared to salmeterol” value in the data set on asthma patients [1] (single dose vs salmeterol 50 micrograms at 0 and 12 hours) is recorded as “statistically significant”. Besides, in the data set with asthma patients [1] (single inhaled doses 5, 10 and 25 micrograms (all doses tested), salmeterol 2 x 50 micrograms, mild to moderate persistent asthma), the “average peak and trough FEV1 compared with placebo and with salmeterol” value is reported as “clearly increased”. The “adverse events commonly seen after adrenergic stimulation (tremor, tachycardia, restlessness)” value in the data set with asthma patients [2] (doses 5, 10 and 25 micrograms, single inhalation) was “occurred only with the two higher (10 and 25 micrograms) doses”. In the data set with asthma patients [2] (setting [4]), the systemic adrenergic effects result is recorded as “without producing systemic adrenergic effects”. In addition, the plasma level in data set [3] was below 2.5 pg/mL.
